Experimental data: US10828317B2, “Method of treating bacterial infections” (priority 2016, dated 2020)
Values joined by “and” are separate entries in the source; they are usually repeats but may differ in a detail not shown here. Equal entries are not always repeated. Where two headings read alike, the source gives them in different places.

Key:
[1] = tested on: K. pneumoniae EN0143; experiment: MIC, ESBL (SHV-12); format: cell-based; conditions: Klebsiella pneumoniae, read-out: MIC
[2] = tested on: E. coli strain no 2; experiment: MIC vs E. coli LMG 15862, penicillin resistant; conditions: Escherichia coli
[3] = tested on: K. pneumoniae EN0233; experiment: MIC; format: cell-based; conditions: Klebsiella pneumoniae, read-out: MIC
[4] = tested on: K. pneumoniae EN0436; experiment: MIC, colistinR; format: cell-based; conditions: Klebsiella pneumoniae, read-out: MIC
[5] = tested on: K. oxytoca EN0392; experiment: MIC; format: cell-based; conditions: Klebsiella oxytoca
[6] = tested on: K. pneumoniae EN0142; experiment: MIC, OXA-48, CTX-M-15; format: cell-based; conditions: Klebsiella pneumoniae, EN0142, combination didanosine+trimethoprim+uridine, Table 20
[7] = tested on: K. pneumoniae EN0262; experiment: MIC, ESBL (+), KPC+; format: cell-based
[8] = tested on: E. coli; experiment: Murine peritonitis model; format: in vivo, mice; parameters: score at sampling: scale not given here
[9] = tested on: E. coli EN0138; experiment: MIC, ESBL (CTX-M-9); format: cell-based; conditions: Escherichia coli, EN0138, combination AZT+trimethoprim+uridine, Table 17B; read-out: MIC
[10] = tested on: E. aerogenes EN0461; experiment: MIC; format: cell-based, Enterobacter aerogenes; conditions: Klebsiella aerogenes, read-out: MIC
[11] = tested on: K. pneumoniae EN010; experiment: MIC, WT; format: cell-based, Klebsiella pneumoniae; conditions: Klebsiella pneumoniae, read-out: MIC
[12] = tested on: K. pneumoniae EN0437; experiment: MIC, colistinR; format: cell-based; conditions: Klebsiella pneumoniae, read-out: MIC
[13] = tested on: E. coli EN0134; experiment: MIC, AmpC (CMY-4); format: cell-based; conditions: Escherichia coli, read-out: MIC
[14] = tested on: S. typhimurium EN0466; experiment: MIC; format: cell-based; conditions: Salmonella enterica
[15] = tested on: Helicobacter pylori APV00918; experiment: MIC; format: cell-based; conditions: Helicobacter pylori, APV00918, combination FdUrd+trimethoprim+uridine, Table 22A
Text: (§1) Inhibition of Heliobacter is important in view of increasing resistance and its association to gastric cancer.

[16] = tested on: P. aeruginosa EN004; experiment: MIC, WT (EN004 = EN0004); format: cell-based, Pseudomonas aeruginosa
[17] = Infusion of 1-12 g/sq. m., Leyva et al, 1984; cited from earlier work
[18] = tested on: Helicobacter pylori ATTC43504; experiment: MIC; format: cell-based; conditions: Helicobacter pylori, Table 22A, read-out: MIC
Text: as §1

[19] = tested on: S. flexneri APV00906; experiment: microbe, parasite or virus in culture; format: cell-based; conditions: Shigella flexneri, APV00906
Text: as §1

[20] = EN0392, Combination 1 AZT+trimethoprim+uridine, Table 16
[21] = EN0392, combination AZT+trimethoprim+uridine, Table 6
[22] = EN0392, combination FdUrd+trimethoprim+uridine, Table 8
[23] = Trimethoprim 30 mg/kg, per mouse
[24] = EN0461, Combination 2 AZT+trimethoprim+uridine+thymidine, Table 16
[25] = EN0461, combination AZT+trimethoprim+uridine, Table 6
[26] = EN0134, combination didanosine+trimethoprim+uridine, Table 20
[27] = Combination 1 AZT+trimethoprim+uridine, Table 16
[28] = combination AZT+trimethoprim+uridine, Table 6
[29] = combination FdUrd+trimethoprim+uridine, Table 8
[30] = Pseudomonas aeruginosa, EN004, Combination 1 AZT+trimethoprim+uridine, Table 16, read-out: MIC
[31] = Pseudomonas aeruginosa, EN004, Combination 2 AZT+trimethoprim+uridine+thymidine, Table 16, read-out: MIC
[32] = Pseudomonas aeruginosa, EN004, combination AZT+trimethoprim+uridine, Table 6, read-out: MIC
[33] = Pseudomonas aeruginosa, EN004, combination FdUrd+trimethoprim+uridine, Table 8, read-out: MIC
[34] = Pseudomonas aeruginosa, EN004, combination didanosine+trimethoprim+uridine, Table 10, read-out: MIC
[35] = combination AZT+trimethoprim+uridine, Table 17B
[36] = combination FdUrd+trimethoprim+uridine, Table 19
[37] = combination didanosine+trimethoprim+uridine, Table 20

Structure (SMILES): COc1cc(Cc2cnc(N)nc2N)cc(OC)c1OC [Trimethoprim, trimethoprim]
- MIC ([1]; EN0143, combination AZT+trimethoprim+uridine, Table 17B): > 4 µg/mL
- MIC ([1]; EN0143, combination FdUrd+trimethoprim+uridine, Table 19): > 8 µg/mL
- MIC ([1]; EN0143, combination didanosine+trimethoprim+uridine, Table 20): > 8 µg/mL
- MIC ([2]; NO2, read-out: MIC FdUrd/Trimethoprim (1:2), uridine 10 μg/ml, thymidine 10 μM): > 40 µg/mL
- MIC ([2]; NO2, read-out: MIC FdUrd/Trimethoprim (1:2), uridine 100 μg/ml, thymidine 10 μM): > 40 µg/mL
- MIC ([3]; EN0233, combination FdUrd+trimethoprim+uridine, Table 19): 1 µg/mL
- MIC ([3]; EN0233, combination didanosine+trimethoprim+uridine, Table 20): 2 µg/mL
- MIC ([4]; EN0436, combination FdUrd+trimethoprim+uridine, Table 19): 0.5 µg/mL
- MIC ([4]; EN0436, combination didanosine+trimethoprim+uridine, Table 20): 0.5 µg/mL
- MIC [5, 20]: 0.064 µg/mL
- MIC ([5]; EN0392, Combination 2 AZT+trimethoprim+uridine+thymidine, Table 16): 0.5 µg/mL
- MIC [5, 21]: 0.06 µg/mL
- MIC [5, 22]: 0.25 µg/mL
- MIC ([5]; EN0392, combination didanosine+trimethoprim+uridine, Table 10): 0.5 µg/mL
- MIC [6]: > 8 µg/mL
- MIC ([7]; Klebsiella pneumoniae, EN0262, combination AZT+trimethoprim+uridine, Table 17B and 18, read-out: MIC): 0.5 µg/mL
- MIC ([7]; Klebsiella pneumoniae, EN0262, combination FdUrd+trimethoprim+uridine, Table 19 and 21, read-out: MIC): 4 µg/mL
- MIC ([7]; Klebsiella pneumoniae, EN0262, combination didanosine+trimethoprim+uridine, Table 20 and 21, read-out: MIC): 4 µg/mL
- MIC ([7]; combination AZT+trimethoprim+uridine, Table 17B and 18): 0.5 µg/mL
- MIC ([7]; combination FdUrd+trimethoprim+uridine, Table 19 and 21): 4 µg/mL
- MIC ([7]; combination didanosine+trimethoprim+uridine, Table 20 and 21): 4 µg/mL
- CFU/ml PF [8, 23]: 9.50E+03 CFU/ml and 1.60E+06 CFU/ml and 3.25E+05 CFU/ml and 4.75E+05 CFU/ml
- log CFU/ml PF [8, 23]: 3.98 log CFU/ml and 6.20 log CFU/ml and 5.51 log CFU/ml and 5.68 log CFU/ml
- score at sampling [8, 23]: 1
- inhibition in mice infected with E. coli (in words) ([8]; murine peritonitis model): slight inhibition
- MIC [9]: 0.016 µg/mL
- MIC ([10]; EN0461, Combination 1 AZT+trimethoprim+uridine, Table 16): 0.25 µg/mL
- MIC [10, 24]: 2 µg/mL
- MIC [10, 25]: 0.25 µg/mL
- MIC ([10]; EN0461, combination FdUrd+trimethoprim+uridine, Table 8): 2 µg/mL
- MIC ([10]; EN0461, combination didanosine+trimethoprim+uridine, Table 10): 1 µg/mL
- MIC ([11]; EN010, Combination 2 AZT+trimethoprim+uridine+thymidine, Table 16): 1 µg/mL
- MIC ([11]; EN010, combination AZT+trimethoprim+uridine, Table 6): 0.5 µg/mL
- MIC ([11]; EN010, combination FdUrd+trimethoprim+uridine, Table 8): 1 µg/mL
- MIC ([11]; EN010, combination didanosine+trimethoprim+uridine, Table 10): 1 µg/mL
- MIC ([12]; EN0437, combination AZT+trimethoprim+uridine, Table 17B): > 4 µg/mL
- MIC ([12]; EN0437, combination FdUrd+trimethoprim+uridine, Table 19): > 8 µg/mL
- MIC ([12]; EN0437, combination didanosine+trimethoprim+uridine, Table 20): > 8 µg/mL
- MIC ([13]; EN0134, combination FdUrd+trimethoprim+uridine, Table 19): > 8 µg/mL
- MIC [13, 26]: > 8 µg/mL
- MIC [14, 27]: 0.064 µg/mL
- MIC ([14]; Combination 2 AZT+trimethoprim+uridine+thymidine, Table 16): 0.5 µg/mL
- MIC [14, 28]: 0.06 µg/mL
- MIC [14, 29]: 0.25 µg/mL
- MIC ([14]; combination didanosine+trimethoprim+uridine, Table 10): 0.5 µg/mL
- MIC [15]: 0.125 µg/mL
- MIC [16, 30]: > 4 µg/mL
- MIC [16, 31]: > 4 µg/mL
- MIC [16, 32]: > 4 µg/mL
- MIC [16, 33]: > 8 µg/mL
- MIC [16, 34]: > 8 µg/mL
- MIC [16, 35]: >4 µg/mL
- MIC [16, 36]: >8 µg/mL
- MIC [16, 37]: >8 µg/mL

Structure (SMILES): O=c1ccn([C@@H]2O[C@H](CO)[C@@H](O)[C@H]2O)c(=O)[nH]1 [Uridine, uridine]
- MIC [5, 20]: 6.4 µg/mL
- MIC [5, 21]: 16 µg/mL
- MIC [5, 22]: 13 µg/mL
- MIC [6]: > 400 µg/mL
- plasma levels [17]: up to 500 μg/ml
- MIC [10, 24]: 200 µg/mL
- MIC [10, 25]: 60 µg/mL
- MIC [13, 26]: > 400 µg/mL
- MIC [14, 27]: 6.4 µg/mL
- MIC [14, 28]: 16 µg/mL
- MIC [14, 29]: 13 µg/mL
- MIC ([18]; ATTC43504, combination AZT+trimethoprim+uridine): 13 µg/mL
- MIC ([18]; ATTC43504, combination FdUrd+trimethoprim+uridine): 6 µg/mL
- MIC [19]: > 400 µg/mL
- MIC [16, 30]: > 400 µg/mL
- MIC [16, 31]: > 400 µg/mL
- MIC [16, 32]: > 1000 µg/mL
- MIC [16, 33]: > 400 µg/mL
- MIC [16, 34]: > 400 µg/mL
- MIC [16, 35]: >400 µg/mL
- MIC [16, 36]: >400 µg/mL
- MIC [16, 37]: >400 µg/mL
